# Laboratory results: patent US11433042B2, “Methods and compositions for treating metabolic disorders” (Joslin Diabetes Center, Inc., priority 2017, dated 2022)
# Tests used:
# [1] = CLAMS study in cold conditions (4° C.); type: in vivo; conditions: mice, 1 μg/kg intravenously, 1 h at cold (4° C.)
# Experimental: For CLAMS studies, mice were injected intravenously with 1 μg/kg body weight 12,13-diHOME in 0.1% BSA PBS or vehicle and then monitored using the CLAMS system in cold conditions (4° C.) for 1 hour. Respiratory exchange ratio (R.E.R.) was calculated as the ratio of total carbon dioxide produced to total oxygen consumed.
# lipoprotein lipase (LPL) = assay: mRNA expression by qPCR in tissue from 12,13-diHOME treated mice; type: in vivo; conditions: diet-induced obese mice, 2 weeks at 10 μg/kg body weight
# Experimental: For the experiments with daily injections of 12,13-diHOME, mice were fed with a high-fat diet containing 60 kcal % fat (Research Diets Stock no. D12492) for 16 weeks prior to treatment and during the course of the experiment. Mice were first injected intraperitoneally daily with 1 ug/kg body weight, 12,13-diHOME in 0.1% BSA w/v in PBS or vehicle and body for one week, then injected every day with 10 ug/kg body weight two weeks. For all experiments, serum was collected and triglycerides were measured using a standard enzymatic assay (ZenBiosystems). Non-esterified FA were also measured with a colorimetric assay (Wako Chemicals USA). High-density and low-density lipoprotein fractions were isolated and cholesterol was measured with a colorimetric assay (Abcam). All mice were allowed ad libitum access to water and food. Total RNA was extracted from tissue with Trizol and purified using a spin column kit (Zymo Research). RNA (500 ng-1 μg) was reverse transcribed with a high-capacity complementary DNA (cDNA) reverse transcription kit (Applied Biosystems). Real-time PCR was performed in mouse tissues starting with 10 ng of cDNA and forward and reverse oligonucleotide primers (300 nM each) in a final volume of 10 μl with SYBR green PCR Master Mix (Roche). Fluorescence was determined and analyzed in an ABI Prism 7900 sequence detection system (Applied Biosystems). […]
# CD36 = assay: Membrane fractionation and immunoblot, CD36; type: cell-based; conditions: differentiated WT-1 brown adipocytes, 1 μM for 15 minutes
# Experimental: (§1) WT-1 brown preadipocytes were differentiated according to a standard adipogenic differentiation protocol for 9 days before cells were serum starved for 1 hour. Cells were treated with 1 μM 12,13-diHOME or methyl acetate vehicle in 0.1% BSA w/v in PBS for 15 minutes before cells were scraped from tissue culture plates into homogenization buffer and membranes were separated according to previously published protocols (Nishiumi, S. & Ashida, H., Bioscience, biotechnology, and biochemistry. 71, 2343-2346 (2007)). Protein lysates were stored at −20° C. until further use. Protein concentrations were determined by using the Pierce BCA kit (Life Technologies) according to instructions. For immunoblots, lysates were diluted into Laemmli buffer and boiled, then loaded onto 10% Tris gels for SDS-PAGE. After complete separation of the proteins, these were transferred on a PVDF membrane (Amersham Biosciences), blocked in western blocking buffer (Roche), and primary antibodies listed in Table 1, below, were applied in blocking buffer over night at 4° C. After washing 4× for 15 min with TBS-T, secondary antibodies were applied for 1 h in blocking buffer. Membranes were washed again 3× times for 15 min in TBS-T and developed using chemiluminescence (ThermoFisher). After scanning films, densitometry was analyzed using ImageJ software.
# FATP1 = assay: Membrane fractionation and immunoblot, FATP1; type: cell-based; conditions: differentiated WT-1 brown adipocytes, 1 μM for 15 minutes
# Experimental: as §1
# [2] = Blood pressure and pulse by the tail cuff method; type: in vivo; conditions: mice, acute pretreatment
# Experimental: For cold tolerance assay, mice were injected retro-orbitally with 1 μg/kg body weight 12,13-diHOME (purchased from Cayman Chemical Company) in 0.1% w/v BSA in PBS or vehicle, then immediately placed in a cold room maintained at 4° C. and body core temperature was determined by rectal probe measurements. Mice injected retro-orbitally were also used to measure blood pressure and pulse with the tail cuff method (Hatteras Instruments).
# BAT = assay: In vivo bioluminescent fatty acid uptake (FFA-SS-Luc) in UCP1cre+/− Rosa(stop)Luc+/− mice; conditions: 1 ug/kg, compared to vehicle
# Experimental: For in vivo bioluminescent fatty acid uptake experiments, UCP1cre^+/- mice (Stock no. 024670) were bred with Rosa(stop)Luc^+/+ (Stock no. 005125), both obtained from The Jackson Laboratory. Male offspring carrying the UCP1-cre allele were injected retro-orbitally with 1 ug/kg body weight 12,13-diHOME in 0.1% BSA PBS or vehicle, and all mice were co-injected with 2 μm FFA-SS-Luc ([…] Medical). Mice were anesthetized with isofluorane and imaged using the IVIS Spectrum CT using sequential 30 s exposures for 1 hour. Data was analyzed using Living Image Software and movies were assembled from individual images using ImageJ.
compound,measurement,setting,value
"CCCCCC(O)C(O)C/C=C\CCCCCCCC(=O)O (stereo not shown) [12,13-diHOME, 12,13-dihydroxy-9Z-octadecenoic acid]",carbon dioxide production,[1],significant increases
same,oxygen consumption,[1],significant increases
same,respiratory exchange ratio,[1],decrease
same,expression of lipoprotein lipase (LPL) in BAT,lipoprotein lipase (LPL),increased
same,membrane translocation of the low glycosylation form of CD36,CD36,robustly induced
same,membrane translocation of oligomeric FATP1,FATP1,robustly induced
same,blood pressure,[2],no effect
same,diastolic pressure,[2],very transient increase
same,pulse,[2],no effect
same,luminescent signal in BAT (brown adipocyte FA uptake),BAT,significantly increased
